Test results as given in patent US6326034A, “Natural extracted and synthetic antioxidant compositions” (priority 1999, dated 2001).

Key:
[1] = β-carotene test (coupled oxidation of β-carotene and linoleic acid), in vitro; settings: β Carotene test; for antioxidant activity (in words): chromium compounds and their reactants; for EC50 for antioxidant activity of chromium compounds: Table 6
Protocol: Evaluation of antioxidant activity is based on coupled oxidation of β-carotene and linoleic acid. The technique consists of measuring the consumption of β-carotene as a result of its oxidation process in the reaction mixture. The β-carotene-linoleic acid method has been reported as an efficient technique to detect and evaluate antioxidants from plants and from other sources by several investigation groups. Ten milligram of β-carotene were dissolved in 10 ml chloroform and 0.6 ml of the solution was added to a round flask that contained 20 mg of linoleic acid and 200 mg of Tween 20. Chloroform was removed by evaporation, and 50 ml of distilled water were slowly added to the flask with vigorous agitation to form an emulsion. Two milliliters of the emulsion were added to 1 ml of the examined antioxidant solution. The tubes were placed in a water bath at 50° C. and absorbance measurements were made at 30 minutes intervals [M. S. Taga et al., J. Am. Oil Chem. Soc. 61: 928-931, 1984]. […]

[2] = FRAP assay (ferric reducing/antioxidant power), in vitro

Row | Compound | antioxidant activity (in words) [1] | EC50 for antioxidant activity of chromium compounds [1] | other results
1 | O=S(=O)([O-])[O-].O=S(=O)([O-])[O-].O=S(=O)([O-])[O-].[Cr+3].[Cr+3] [Cr2(SO4)3, chromium sulfate, reference compound] | relatively much lower antioxidant effect | – | –
2 | CC(=O)[O-].CC(=O)[O-].CC(=O)[O-].[Cr+3] [Cr Acetate, chromium acetate, reference compound] | lacks any antioxidant activity | – | –
3 | [Cl][Cr]([Cl])[Cl] [CrCl3, chromium chloride, reference compound] | relatively much lower antioxidant effect | 7.2 × 10^-4 mg Cr/ml | antioxidant activity (in words) ([2]; chromium compounds, FRAP, all concentrations used): inactive
4 | N[C@@H](CS)C(=O)O [Cysteine, cysteine, reference compound] | no antioxidant activity | – | –
5 | N[C@@H](CCC(=O)N[C@@H](CS)C(=O)NCC(=O)O)C(=O)O [Glutathione, glutathione, reference compound] | lower activity | – | –
6 | CC(=O)N[C@@H](CS)C(=O)O [NAC, N-acetyl cysteine, reference compound] | lower activity | – | –
7 | Chromium Cysteine [Cr-Cys] | the most active complex | 7.8 × 10^-8 mg Cr/ml | fold more active than cysteine ([2]; at equal concentrations of cysteine, FIG. 27): 2.5 fold; antioxidant activity (in words) ([1]; listed as Cr-cysteine): dose dependent antioxidant activity
8 | Chromium N-Acetyl Cysteine [Cr-NAC] | dose dependent antioxidant activity | 2.7 × 10^-7 mg Cr/ml | –
9 | Chromium-Cystine | did not show any antioxidant activity | – | –
10 | Chromium-Glutathione [Cr-GSH] | dose dependent antioxidant activity | 2.7 × 10^-7 mg Cr/ml | –
